# Key:
# r-NAAA = biological target: T1, r-NAAA (Rattus norvegicus, UniProt Q5KTC7); test: UPLC/MS r-NAAA assay; assay type: biochemical; settings: rat lung lysosomal NAAA preparation
# T1 construct: Lysosomal NAAA protein preparation was obtained by homogenizing male Sprague-Dawley rat lungs; tissue Charles River; host or cells: male Sprague-Dawley rat lung, soluble lysosomal fraction
# T1 sequence (Q5KTC7 34-362): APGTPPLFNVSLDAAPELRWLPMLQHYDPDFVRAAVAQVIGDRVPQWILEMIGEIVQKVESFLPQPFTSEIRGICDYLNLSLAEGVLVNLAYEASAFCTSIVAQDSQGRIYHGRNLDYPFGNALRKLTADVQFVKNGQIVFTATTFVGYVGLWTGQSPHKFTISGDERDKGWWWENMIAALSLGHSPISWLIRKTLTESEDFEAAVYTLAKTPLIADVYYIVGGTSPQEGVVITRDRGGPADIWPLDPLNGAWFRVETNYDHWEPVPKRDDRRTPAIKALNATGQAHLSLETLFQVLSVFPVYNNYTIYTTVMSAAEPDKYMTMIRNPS
# Description: Lysosomal NAAA protein preparation was obtained by homogenizing male Sprague-Dawley rat lungs (Charles River) in 20 mM Tris-HCl buffer pH 7.4 containing 0.32M sucrose. Samples were centrifuged at 800×g for 15 min at 4° C. Supernatants were centrifuged at 12,000×g for 30 min at 4° C. Pellets were then resuspended in PBS pH 7.4 and subjected to a freeze/thaw cycle at −80° C. The suspension was finally centrifuged at 105,000 g for 1 h at 4° C. The supernatant was used in enzymatic assays.
# NAAA preparations were pre-incubated with various concentrations of test compounds or vehicle control in 100 mM NaH2PO4/Citrate buffer, 1% Triton-X, 3 mM DTT (pH 4.5) for 30 min at 37° C. Samples were incubated with heptadecenoylethanolamide (50 μM, Avanti Polar Lipids) at 37° C. for 30 min. The reaction was terminated by addition of cold methanol containing heptadecanoic acid (NuCheck Prep) as internal standard. Samples were analyzed by UPLC/MS (Acquity, Waters). Heptadecenoic and heptadecanoic acids were eluted on an Acquity UPLC BEH C18 column (50 mm length, 2.1 mm i.d., 1.7 μm pore size, Waters) isocratically at 0.5 mL/min for 1.5 min with a solvent mixture of 95% methanol and 5% H2O, both containing 0.25% Acetic Acid and 5.0 mM ammonium acetate. The column temperature was 40° C. Electrospray ionization was in the negative mode, capillary voltage was 0.5 kV, cone voltage was […], desolvation temperature was 500° C. N2 was used as drying gas at a flow rate of 1000 L/hour and a temperature of 500° C. The [M−H]^− ion was monitored in the selected-ion monitoring mode (m/z values: heptadecenoic acid 267.37, heptadecanoic acid 269.37). Calibration curves were generated using commercial heptadecenoic acid (NuCheck Prep) Inhibition of NAAA activity was calculated as reduction of heptadecenoic acid in the samples compared to vehicle controls. IC50 values were calculated by non-linear regression analysis of log [concentration]/inhibition curves using GraphPad Prism 5 (GraphPad Software Inc., CA—USA) applying a standard slope curve fitting.
# [1] = tested on: carrageenan-induced paw edema and heat hyperalgesia; test: Carrageenan-induced inflammation (paw edema, heat hyperalgesia); assay type: in vivo; settings: mice, intraperitoneal, 10-100 mg/kg
IC50 (r-NAAA),Structure (SMILES),paw edema ([1]; FIG. 1 A),heat hyperalgesia ([1]; FIG. 1 B)
240 nM,"CCCCCCCCC(=O)N[C@H]1CNC1=O [Example 3, N-[(3S)-2-Oxoazetidin-3-yl]-nonanamide]",reduced,reduced
2100 nM,"O=C(CCCCCCc1ccccc1)N[C@H]1CNC1=O [Example 7, 7-Phenyl-N-[(3S)-2-Oxoazetidin-3-yl]-heptanamide]",,

# Source: US9908848B2, “Amide derivatives of lactam based N-acylethanolamine acid amidase (NAAA) inhibitors” (The Regents of the University of California, priority 2013, dated 2018)
